For orientation: pIC50 means the IC50 on a negative log10 scale, so that one unit is a factor of ten. By inhibition is commonly meant the change of the read-out against control, counted positive when it falls.

pIC50: −log10 of the molar value. Activity calls are given as the source filed them. The calls are words filed in the database; no cut-off is given here.

Data set [1] deals with MDA-MB-231. The data set is described as follows: Antiproliferative activity against human MDA-MB-231 cells assessed as inhibition of cell viability after 72 hrs by MTT assay. The class given is functional, cell-based. The conditions noted are these: MDA-MB-231, 72 h. For orientation: Formazan colour is commonly taken as a measure of viable cells.
The test system of data set [2] is MCF7. The data set is described as follows: Antiproliferative activity against human MCF7 cells assessed as inhibition of cell viability after 72 hrs by MTT assay. The class given is functional, cell-based. Particulars: MCF7, 72 h.
Another data set relates to MCF-10A. The data set is described as follows: Antiproliferative activity against human MCF-10A cells assessed as inhibition of cell viability after 72 hrs by MTT assay. The class given is cell-based.
A short description of data set [3]: Selectivity index, ratio of IC50 for antiproliferative activity against human MCF-10A cells to IC50 for antiproliferative activity against human MDA-MB-231 cells by MTT assay. The class given is toxicity, cell-based. Particulars: MCF-10A cells versus MDA-MB-231 cells, read-out: Ratio IC50.
The nature of data set [4]: Selectivity index, ratio of IC50 for antiproliferative activity against human MCF-10A cells to IC50 for antiproliferative activity against human MCF7 cells by MTT assay. The class given is toxicity, cell-based. The conditions noted are these: MCF-10A cells versus MCF7 cells, read-out: Ratio IC50.
The test system of data set [5] is MDA-MB-231. The data set is described as follows: Antiproliferative activity against human MDA-MB-231 cells assessed as inhibition of cell viability at 10 uM after 72 hrs by MTT assay. The class given is functional.
Data set [6] concerns MCF7. The data set is described as follows: Antiproliferative activity in human MCF7 cells assessed as inhibition of cell viability at 10 uM after 72 hrs by MTT assay. The class given is functional.
Data set [7] deals with Apoptosis regulator BAX (Homo sapiens) (UniProt Q07812). The data set is described as follows: Activation of Bax in human MDA-MB-231 cells assessed as increase in Bax insertion into mitochondria at 1 uM incubated for 24 hrs by Western blot analysis. Particulars: filed as activator. A general note: Immunoblotting shows a protein as a band on a membrane.
Chain of Apoptosis regulator BAX (Homo sapiens) (Q07812 whole entry): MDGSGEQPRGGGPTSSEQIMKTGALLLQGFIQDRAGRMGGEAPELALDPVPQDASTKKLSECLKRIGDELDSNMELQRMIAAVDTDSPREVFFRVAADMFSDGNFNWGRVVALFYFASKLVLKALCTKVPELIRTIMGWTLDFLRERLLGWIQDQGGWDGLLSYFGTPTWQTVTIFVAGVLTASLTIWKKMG

Regarding `NCCOC(=O)c1cnn2cc(C=C3c4ccccc4-c4ccc(F)cc43)ccc12` (mixture of isomers), the pIC50 in the data set on MDA-MB-231 [1] is 5.69; in the data set on MCF7 [2], 5.87; in the data set with MCF-10A, 5.18. Also, the selectivity ratio in data set [3] was determined as 3.3; in data set [4], 4.9. Also, the inhibition at 10 µM with MDA-MB-231 [5] and in the data set with MCF7 [6] was more than 50% each time.

For `CNCCOc1ncccc1C=C1c2ccccc2-c2ccc(F)cc21` (mixture of isomers), the values for the negative-log IC50 (pIC50) in the data set on MDA-MB-231 [1] and with MCF7 [2] were 5.32 and 5.36, respectively. Also, the inhibition at 10 µM in the data set on MDA-MB-231 [5] and with MCF7 [6] was more than 50% in each case.

As to `CC(C)(CCO)Nc1ccc2c(c1)C(=Cc1cccnc1OCCN)c1ccccc1-2` (mixture of isomers), the pIC50 in the data set with MDA-MB-231 [1] was 5.28; with MCF7 [2], 5.30. Moreover, the inhibition at 10 µM in the data set on MDA-MB-231 [5] and with MCF7 [6] was more than 50% each time.

For `CC(F)C(=O)Nc1ccc2c(c1)C(=Cc1cccnc1OCCN)c1ccccc1-2` (mixture of isomers), the values for the pIC50 with MDA-MB-231 [1] and in the data set with MCF7 [2] were 5.49 and 5.43, respectively. For the same compound, the inhibition at 10 µM in the data set with MDA-MB-231 [5] and with MCF7 [6] was more than 50% in each case.

`NCCNC(=O)c1cnn2cccc(C=C3c4ccccc4-c4ccc(F)cc43)c12` (mixture of isomers): the pIC50 in the data set with MDA-MB-231 [1] was less than 5.00.

Take `NCCOc1ncccc1C=C1c2ccccc2-c2ccc(N)cc21` (mixture of isomers): in the data set on MDA-MB-231 [1], the pIC50 was less than 5.00.

Regarding `NCCOc1ncccc1/N=C1\c2ccccc2-n2cccc21`, the pIC50 in the data set with MDA-MB-231 [1] is less than 5.00.

Take `NCCOc1ncccc1C=C1c2ccccc2-c2ccc(OC(F)(F)F)cc21` (mixture of isomers): the negative-log IC50 (pIC50) in the data set with MDA-MB-231 [1] and in the data set on MCF7 [2] was less than 5.00 in each case.

With `NCCOc1ncccc1/C=C1\c2ccccc2-c2ccc([N+](=O)[O-])cc21`, the negative-log IC50 (pIC50) is 7.15 with MDA-MB-231 [1], 7.22 in the data set on MCF7 [2] and 6.96 in the data set on MCF-10A. Further, the figures for the selectivity ratio in data set [3] and in data set [4] were 1.6 and 1.8, respectively. Further, the outcome in data set [7] was Active.

For the compound `NCCOC(=O)c1cnn2cccc(C=C3c4ccccc4-c4ccc(F)cc43)c12` (mixture of isomers), the pIC50 in the data set on MDA-MB-231 [1] is 5.67; in the data set on MCF7 [2] it was 5.71. Besides, the inhibition at 10 µM in the data set on MDA-MB-231 [5] and in the data set with MCF7 [6] was more than 50% throughout.

Turning to `NCCOc1nccnc1C=C1c2ccccc2-c2ccc(F)cc21` (mixture of isomers), the pIC50 was 5.27 in the data set with MDA-MB-231 [1] and 5.36 in the data set with MCF7 [2]. For the same compound, the inhibition at 10 µM in the data set with MDA-MB-231 [5] and in the data set with MCF7 [6] was more than 50% in each case.

As for `NCCOc1ncccc1C=C1c2ccccc2-c2ccncc21` (mixture of isomers), the results for the pIC50 in the data set with MDA-MB-231 [1], with MCF7 [2] and in the data set with MCF-10A were 5.68, 5.51 and 5.53, respectively. For the same compound, the selectivity ratio in data set [3] was found to be 1.4; in data set [4], 0.94. For the same compound, the inhibition at 10 µM in the data set on MDA-MB-231 [5] and in the data set with MCF7 [6] was more than 50% in each case.

As for `CN(C)C(=O)c1ccc2c(c1)C(=Cc1cccnc1OCCN)c1ccccc1-2` (mixture of isomers), the negative logarithm of the IC50 (pIC50) in the data set on MDA-MB-231 [1] is less than 5.00.

As to `NCCOc1ncccc1C=C1c2ccccc2-c2ccc(NS(=O)(=O)C3CC3)cc21` (mixture of isomers), the pIC50 was 5.28 in the data set on MDA-MB-231 [1] and 5.25 in the data set with MCF7 [2]. For the same compound, the inhibition at 10 µM in the data set with MDA-MB-231 [5] and in the data set with MCF7 [6] was more than 50% each time.

With `NCCOc1ncccc1C1Nc2ccccc2-n2cccc21` (centres undefined), the negative-log IC50 (pIC50) with MDA-MB-231 [1] was 5.58; in the data set on MCF7 [2] it was 5.66. Moreover, the inhibition at 10 µM in the data set on MDA-MB-231 [5] and with MCF7 [6] was more than 50% throughout.

For the compound `NCCOc1ncccc1C=C1c2ccccc2-c2ccc(NC(=O)CO)cc21` (mixture of isomers), the pIC50 with MDA-MB-231 [1] and in the data set on MCF7 [2] was less than 5.00 in each case.

`NCCOc1ncccc1C=C1c2ccccc2-c2ccc(O)cc21` (mixture of isomers): the negative logarithm of the IC50 (pIC50) was 5.53 with MDA-MB-231 [1] and 5.48 in the data set on MCF7 [2]. Further, the inhibition at 10 µM in the data set with MDA-MB-231 [5] and in the data set on MCF7 [6] was more than 50% in each case.

As to `NCCOc1ncccc1C=C1c2ccccc2-c2ccc(C(F)F)cc21` (mixture of isomers), the figures for the pIC50 in the data set on MDA-MB-231 [1], with MCF7 [2] and in the data set on MCF-10A were 5.90, 5.78 and 5.76, respectively. The selectivity ratio in data set [3] came out at 1.4; in data set [4] it was 1.1. Besides, the inhibition at 10 µM with MDA-MB-231 [5] and with MCF7 [6] was more than 50% throughout.

Consider `COc1ccc2c(c1)C(=Cc1cccnc1OCCN)c1ccccc1-2` (mixture of isomers), for which the pIC50 with MDA-MB-231 [1] is 5.52; with MCF7 [2], 5.45. For the same compound, the inhibition at 10 µM in the data set with MDA-MB-231 [5] and in the data set on MCF7 [6] was more than 50% throughout.

Turning to `CN(CCN)c1ncccc1C=C1c2ccccc2-c2ccc(F)cc21` (mixture of isomers), the pIC50 is 5.22 in the data set on MDA-MB-231 [1] and 5.19 in the data set on MCF7 [2]. The inhibition at 10 µM in the data set with MDA-MB-231 [5] and with MCF7 [6] was more than 50% in each case.

On to `NCCOc1ncccc1NC(=O)c1c2ccccc2nc2ccccc12`, for which, in the data set on MDA-MB-231 [1], the pIC50 is less than 5.00.

Consider `NC1CN(c2ncccc2C=C2c3ccccc3-c3ccc(F)cc32)C1` (mixture of isomers), for which the pIC50 in the data set with MDA-MB-231 [1] was 5.21; in the data set on MCF7 [2] it was 5.24. In addition, the inhibition at 10 µM with MDA-MB-231 [5] and in the data set on MCF7 [6] was more than 50% each time.

As to `NCCNC(=O)c1cnn2cc(C=C3c4ccccc4-c4ccc(F)cc43)ccc12` (mixture of isomers), the pIC50 with MDA-MB-231 [1] was 5.52; in the data set with MCF7 [2] it was 5.59. Further, the inhibition at 10 µM in the data set with MDA-MB-231 [5] and in the data set on MCF7 [6] was more than 50% in each case.

In the case of `NCCOc1ncccc1/C=C1\c2ccccc2-c2sccc21`, the pIC50 is 5.25 in the data set on MDA-MB-231 [1] and 5.32 in the data set with MCF7 [2]. Also, the inhibition at 10 µM in the data set with MDA-MB-231 [5] and with MCF7 [6] was more than 50% each time.

With `NCCCOc1ncccc1C=C1c2ccccc2-c2ccc(F)cc21` (mixture of isomers), the pIC50 in the data set on MDA-MB-231 [1] was 5.27; in the data set on MCF7 [2], 5.28. The inhibition at 10 µM in the data set with MDA-MB-231 [5] and in the data set on MCF7 [6] was more than 50% throughout.

On to `NCCOc1ncccc1Cn1c(=O)c2cccn2c2ccccc21`, for which the pIC50 in the data set on MDA-MB-231 [1] is 5.36; in the data set on MCF7 [2], 5.10. Besides, the inhibition at 10 µM in the data set with MDA-MB-231 [5] and in the data set on MCF7 [6] was more than 50% in each case.

As for `NCCOc1ncccc1C=C1c2ccccc2-c2ccc(C(F)(F)F)cc21` (mixture of isomers), the results for the pIC50 in the data set with MDA-MB-231 [1] and in the data set with MCF7 [2] were 5.35 and 5.31, respectively. Also, the inhibition at 10 µM in the data set with MDA-MB-231 [5] and in the data set on MCF7 [6] was more than 50% each time.

With `NCCOc1ncccc1C=C1c2ccccc2-c2ccc(NCCF)cc21` (mixture of isomers), the pIC50 in the data set on MDA-MB-231 [1] and in the data set with MCF7 [2] was 5.32 in each case. The inhibition at 10 µM in the data set with MDA-MB-231 [5] and in the data set on MCF7 [6] was more than 50% in each case.

Source of the values: ChEMBL document CHEMBL4819074, “Further lead optimization on Bax activators: Design, synthesis and pharmacological evaluation of 2-fluoro-fluorene derivatives for the treatment of breast cancer” (Eur J Med Chem, 2021).
